Reference: patent publication US7365202B2, “Polymorphs of an androgen receptor modulator” (Merck & Co., Inc., priority 2005, dated 2008)

Experiments:
[1] = Source text: The weight increase was based on the initial total sample weight at 25% RH.
[2] = tested on: human AR in MDA-MB-453 cells; experiment: Trans-Activation Modulation of Androgen Receptor (TAMAR), MMTV-LUC reporter; format: cell-based
Protocol: Trans-Activation Modulation of Androgen Receptor (TAMAR)
This assay assesses the ability of test compounds to control transcription from the MMTV-LUC reporter gene in MDA-MB-453 cells, a human breast cancer cell line that naturally expresses the human AR. The assay measures induction of a modified MMTV LTR/promoter linked to the LUC reporter gene.
20,000 to 30,000 cells/well are plated in a white, clear-bottom 96-well plate in “Exponential Growth Medium” which consists of phenol red-free RPMI 1640 containing 10%FBS, 4 mM L-glutamine, 20 mM HEPES, 10 ug/mL human insulin, and 20 ug/mL gentamicin. Incubator conditions are 37° C. and 5% CO2. The transfection is done in batch mode. The cells are trypsinized and counted to the right cell number in the proper amount of fresh media, and then gently mixed with the Fugene/DNA cocktail mix and plated onto the 96-well plate. All the wells receive 200 TI of medium+lipid/DNA complex and are then incubated at 37° C. overnight. The transfection cocktail consists of serum-free Optimem, Fugene6 reagent and DNA. The manufacturer's (Roche Biochemical) protocol for cocktail setup is followed. The lipid (Tl) to DNA (Tg) ratio is approximately 3:2 and the incubation time is 20 minutes at room temperature. Sixteen to 24 hrs after transfection, the cells are treated with test compounds such that the final DMSO (vehicle) concentration is <3%. […]

[3] = molecular target: T1, rhAR NTD/CTD interaction in CV-1 monkey kidney cells (Macaca mulatta, UniProt Q6QT55); experiment: Mammalian two-hybrid assay for ligand-induced interaction of N-terminus and C-terminus domains of the androgen receptor (agonist mode: VIRCON); format: cell-based; conditions: at 10 micromolar; read-out: agonist activity (Emax relative to the activity obtained with 3 nM R1881)
T1 construct: pCBB1 (Gal4DBD-rhARLBD fusion construct expressed under the SV40 early promoter); expressed in transfected cells; host or cells: CV-1 monkey kidney cells
T1 sequence (Q6QT55 644-895): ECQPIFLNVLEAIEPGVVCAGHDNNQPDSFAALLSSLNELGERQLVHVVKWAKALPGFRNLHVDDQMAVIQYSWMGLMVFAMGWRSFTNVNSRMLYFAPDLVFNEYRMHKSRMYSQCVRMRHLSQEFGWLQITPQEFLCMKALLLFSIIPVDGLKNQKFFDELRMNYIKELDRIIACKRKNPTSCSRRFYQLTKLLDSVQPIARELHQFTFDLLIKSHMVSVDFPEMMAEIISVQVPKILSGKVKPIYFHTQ
Source text: Mammalian Two-Hybrid Assay for the Ligand-Induced Interaction of N-Terminus and C-Terminus Domains of the Androgen Receptor (Agonist Mode: VIRCON)
This assay assesses the ability of AR agonists to induce the interaction between the N-terminal domain (NTD) and C-terminal domain (CTD) of rhAR that reflects the in vivo virilizing potential mediated by activated androgen receptors. The interaction of NTD and CTD of rhAR is quantified as ligand induced association between a Gal4DBD-rhARCTD fusion protein and a VP16-rhARNTD fusion protein as a mammalian two-hybrid assay in CV-1 monkey kidney cells.
The day before transfection, CV-1 cells are trypsinized and counted, and then plated at 20,000 cells/well in 96-well plates or larger plates (scaled up accordingly) in DMEM+10% FCS. […]
For each well, 0.4 μL LIPOFECTAMINE Reagent (GIBCO-BRL) is diluted into 4.6 μL OPTI-MEM in a second tube and mixed to form the diluted LIPOFECTAMINE Reagent. […] Forty eight hours later, luciferase activity is measured using LUC-Screen system (TROPIX) following the manufacturer's protocol. […] After incubation for 40 minutes at room temperature, luminescence is directly measured with 2-5 second integration. […]

CN1C(=O)C(F)=C[C@]2(C)[C@H]3CC[C@]4(C)[C@@H](C(=O)NCc5nc6ncccc6[nH]5)CC[C@H]4[C@@H]3CC[C@@H]12 [Form B, N-(3H-imidazo[4,5-b]pyridin-2-ylmethyl)-2-fluoro-4-methyl-3-oxo-4-aza-5α-androst-1-en-17β-carboxamide]
loss of total weight ([1]; 25° C., relative humidity decreases from 95% to 5% RH): about 8%
moisture uptake (weight increase based on initial total sample weight at 25% RH) ([1]; from about 25% to about 95% RH at 25° C.): about 7%

CN1C(=O)C(F)=C[C@]2(C)C3CC[C@]4(C)[C@@H](C(=O)NCc5nc6cccnc6[nH]5)CC[C@H]4C3CC[C@@H]12 (stereo partly drawn) [compound of formula I, N-(3H-imidazo[4,5-b]pyridin-2-ylmethyl)-2-fluoro-4-methyl-3-oxo-4-aza-5-alpha-androst-1-en-17-beta-carboxamide]
partial agonist activity (Emax relative to the activity obtained with 100 nM R1881) [2]: greater than 10%
Emax at 10 µM [3]: < 50%
